Assay results reported in ChEMBL document CHEMBL4680338, “Sinomenine inhibits hypoxia induced breast cancer side population cells metastasis by PI3K/Akt/mTOR pathway” (Bioorg Med Chem, 2021).
The source made the active and inactive calls.

Tests used:
MDA-MB-231 [1] = experiment: Inhibition of hypoxia-induced activation of PI3K/Akt/mTOR signaling in human MDA-MB-231 side population cells at 1 nM measured after 24 hrs in presence of IGF-1 by Western blot analysis
MDA-MB-231 [2] = experiment: Cytotoxicity against human MDA-MB-231 cells assessed as reduction in cell viability at 1 to 4 mM measured after 24 hrs under normoxia condition by CCK-8 assay; format: functional, cell-based; settings: dose 1-4 mM
MCF7 [3] = experiment: Inhibition of hypoxia-induced cell invasion in human MCF7 cells at 0.25 to 1 mM measured after measured after 24 hrs by crystal violet staining based transwell assay; format: functional; settings: dose 0.25-1 mM
MCF7 [4] = experiment: Cytotoxicity against human MCF7 cells assessed as reduction in cell viability at 0.25 to 1 mM measured after 24 hrs under hypoxia condition by CCK-8 assay; format: functional, cell-based; settings: dose 0.25-1 mM
MDA-MB-231 [5] = experiment: Cytotoxicity against human MDA-MB-231 side population cells assessed as reduction in cell viability at 2 to 4 mM measured after 24 hrs under normoxia condition by CCK-8 assay; format: functional, cell-based; settings: dose 2-4 mM
MCF7 [6] = experiment: Cytotoxicity against human MCF7 side population cells assessed as reduction in cell viability at 2 to 4 mM measured after 24 hrs under normoxia condition by CCK-8 assay; format: functional, cell-based; settings: dose 2-4 mM
MDA-MB-231 [7] = experiment: Cytotoxicity against human MDA-MB-231 side population cells assessed as reduction in cell viability at 0.25 to 1 mM measured after 24 hrs under hypoxia condition by CCK-8 assay; format: functional, cell-based; settings: dose 0.25-1 mM
MDA-MB-231 [8] = experiment: Suppression of hypoxia-induced upregulation of MMP9 expression in human MDA-MB-231 side population cells at 0.25 to 1 mM by Western blot analysis; format: functional; settings: dose 0.25-1 mM
MDA-MB-231 [9] = experiment: Suppression of hypoxia-induced upregulation of vimentin expression in human MDA-MB-231 side population cells at 0.25 to 1 mM by Western blot analysis; format: functional; settings: dose 0.25-1 mM
MDA-MB-231 [10] = experiment: Cytotoxicity against human MDA-MB-231 side population cells assessed as reduction in cell viability at 2 to 4 mM measured after 24 hrs under hypoxia condition by CCK-8 assay; format: functional, cell-based; settings: dose 2-4 mM
MDA-MB-231 [11] = experiment: Suppression of hypoxia-induced upregulation of MMP9 expression in human MDA-MB-231 cells at 1 nM measured after 24 hrs in presence of IGF-1 by Western blot analysis; format: functional, cell-based
MDA-MB-231 [12] = experiment: Inhibition of hypoxia-induced activation of PI3K/Akt/mTOR signaling in human MDA-MB-231 side population cells assessed as decrease in phosphorylated mTOR level at 0.25 to 1 mM measured after 24 hrs by Western blot analysis; settings: dose 0.25-1 mM
MCF7 [13] = experiment: Cytotoxicity against human MCF7 side population cells assessed as reduction in cell viability at 0.25 to 1 mM measured after 24 hrs by CCK-8 assay; format: functional, cell-based; settings: dose 0.25-1 mM
MDA-MB-231 [14] = experiment: Suppression of hypoxia-induced upregulation of vimentin expression in human MDA-MB-231 cells at 0.25 to 1 mM by Western blot analysis; format: functional, cell-based; settings: dose 0.25-1 mM
MCF7 [15] = experiment: Decrease in hypoxia-induced cell invasion in human MCF7 side population cells at 0.25 to 1 mM measured after measured after 24 hrs by crystal violet staining based transwell assay; format: functional; settings: dose 0.25-1 mM
MDA-MB-231 [16] = experiment: Suppression of hypoxia-induced upregulation of MMP2 expression in human MDA-MB-231 cells at 0.25 to 1 mM by Western blot analysis; format: functional, cell-based; settings: dose 0.25-1 mM
MDA-MB-231 [17] = experiment: Inhibition of hypoxia-induced activation of PI3K/Akt/mTOR signaling in human MDA-MB-231 side population cells assessed as decrease in phosphorylated Akt level at 0.25 to 1 mM measured after 24 hrs by Western blot analysis; settings: dose 0.25-1 mM
MCF7 [18] = experiment: Cytotoxicity against human MCF7 cells assessed as reduction in cell viability at 1 to 4 mM measured after 24 hrs under normoxia condition by CCK-8 assay; format: functional, cell-based; settings: dose 1-4 mM
MDA-MB-231 [19] = experiment: Decrease in hypoxia-induced cell invasion in human MDA-MB-231 side population cells at 0.25 to 1 mM measured after measured after 24 hrs by crystal violet staining based transwell assay; format: functional; settings: dose 0.25-1 mM
MDA-MB-231 [20] = experiment: Suppression of hypoxia-induced upregulation of MMP9 expression in human MDA-MB-231 cells at 0.25 to 1 mM by Western blot analysis; format: functional, cell-based; settings: dose 0.25-1 mM
MDA-MB-231 [21] = experiment: Reversal of hypoxia-induced downregulation of E-cadherin expression in human MDA-MB-231 side population cells at 0.25 to 1 mM by Western blot analysis; format: functional; settings: dose 0.25-1 mM
MDA-MB-231 [22] = experiment: Suppression of hypoxia-induced upregulation of MMP2 expression in human MDA-MB-231 cells at 1 nM measured after 24 hrs in presence of IGF-1 by Western blot analysis; format: functional, cell-based
MCF7 [23] = experiment: Cytotoxicity against human MCF7 side population cells assessed as reduction in cell viability at 2 to 4 mM measured after 24 hrs under hypoxia condition by CCK-8 assay; format: functional, cell-based; settings: dose 2-4 mM
MCF7 [24] = experiment: Cytotoxicity against human MCF7 side population cells assessed as reduction in cell viability at 0.25 to 1 mM measured after 24 hrs under hypoxia condition by CCK-8 assay; format: functional, cell-based; settings: dose 0.25-1 mM
MDA-MB-231 [25] = experiment: Inhibition of hypoxia-induced cell invasion in human MDA-MB-231 cells at 0.25 to 1 mM measured after measured after 24 hrs by crystal violet staining based transwell assay; format: functional; settings: dose 0.25-1 mM
MDA-MB-231 [26] = experiment: Cytotoxicity against human MDA-MB-231 cells assessed as reduction in cell viability at 0.25 to 1 mM measured after 24 hrs under hypoxia condition by CCK-8 assay; format: functional, cell-based; settings: dose 0.25-1 mM
MDA-MB-231 [27] = experiment: Suppression of hypoxia-induced upregulation of N-cadherin expression in human MDA-MB-231 side population cells at 0.25 to 1 mM by Western blot analysis; format: functional; settings: dose 0.25-1 mM
MDA-MB-231 [28] = experiment: Inhibition of hypoxia-induced activation of PI3K/Akt/mTOR signaling in human MDA-MB-231 side population cells assessed as decrease in phosphorylated PI3K level at 0.25 to 1 mM measured after 24 hrs by Western blot analysis; settings: dose 0.25-1 mM
MDA-MB-231 [29] = experiment: Suppression of hypoxia-induced upregulation of N-cadherin expression in human MDA-MB-231 cells at 0.25 to 1 mM by Western blot analysis; format: functional, cell-based; settings: dose 0.25-1 mM
MDA-MB-231 [30] = experiment: Suppression of hypoxia-induced upregulation of MMP2 expression in human MDA-MB-231 side population cells at 0.25 to 1 mM by Western blot analysis; format: functional; settings: dose 0.25-1 mM
MDA-MB-231 [31] = experiment: Cytotoxicity against human MDA-MB-231 side population cells assessed as reduction in cell viability at 0.25 to 1 mM measured after 24 hrs by CCK-8 assay; format: functional, cell-based; settings: dose 0.25-1 mM
MDA-MB-231 [32] = experiment: Reversal of hypoxia-induced downregulation of E-cadherin expression in human MDA-MB-231 cells at 0.25 to 1 mM by Western blot analysis; format: functional, cell-based; settings: dose 0.25-1 mM

COC1=C[C@@H]2[C@@H]3Cc4ccc(OC)c(O)c4[C@]2(CCN3C)CC1=O
active: Activity (MDA-MB-231 [2]) | inhibition (MCF7 [3]) | Activity (MDA-MB-231 [5]) | Activity (MCF7 [6]) | Activity (MDA-MB-231 [8]) | Activity (MDA-MB-231 [9]) | Activity (MDA-MB-231 [10]) | inhibition (MDA-MB-231 [12]) | Activity (MDA-MB-231 [14]) | Activity (MCF7 [15]) | Activity (MDA-MB-231 [16]) | inhibition (MDA-MB-231 [17]) | Activity (MCF7 [18]) | Activity (MDA-MB-231 [19]) | Activity (MDA-MB-231 [20]) | Activity (MDA-MB-231 [21]) | Activity (MCF7 [23]) | inhibition (MDA-MB-231 [25]) | Activity (MDA-MB-231 [27]) | inhibition (MDA-MB-231 [28]) | Activity (MDA-MB-231 [29]) | Activity (MDA-MB-231 [30]) | Activity (MDA-MB-231 [32])
inactive: inhibition (MDA-MB-231 [1]) | Activity (MCF7 [4]) | Activity (MDA-MB-231 [7]) | Activity (MDA-MB-231 [11]) | Activity (MCF7 [13]) | Activity (MDA-MB-231 [22]) | Activity (MCF7 [24]) | Activity (MDA-MB-231 [26]) | Activity (MDA-MB-231 [31])
